Source: PubChem BioAssay AID602322 (The Scripps Research Institute Molecular Screening Center, 2012)
Active and inactive are the calls of the source. How the calls were made is not given here.

Legend:
[1] = molecular target: Diacylglycerol lipase-beta (Mus musculus) (UniProt Q91WC9); assay: ABHD6 antitarget inhibition potency, dose response, selectivity assay for DAGLb inhibitor project, biochemical, gel-based competitive ABPP, fluorescent probe, mouse (AID 602322); details: proteome, DAGLb
[2] = molecular target: Monoacylglycerol lipase ABHD6 (Mus musculus) (UniProt Q8R2Y0); assay: as above; details: proteome
Monoacylglycerol lipase ABHD6 (Mus musculus), sequence (Q8R2Y0 whole entry, looked up): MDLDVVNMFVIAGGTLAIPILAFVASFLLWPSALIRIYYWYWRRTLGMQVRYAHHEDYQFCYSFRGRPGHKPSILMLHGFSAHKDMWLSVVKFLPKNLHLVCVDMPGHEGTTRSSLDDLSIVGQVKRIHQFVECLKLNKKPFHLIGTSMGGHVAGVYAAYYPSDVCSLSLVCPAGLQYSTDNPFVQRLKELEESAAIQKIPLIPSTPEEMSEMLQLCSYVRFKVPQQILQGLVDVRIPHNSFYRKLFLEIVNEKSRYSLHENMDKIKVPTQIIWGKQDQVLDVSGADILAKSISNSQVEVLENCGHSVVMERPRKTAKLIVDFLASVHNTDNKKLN

Diacylglycerol lipase-beta (Mus musculus), sequence (Q91WC9 whole entry, looked up): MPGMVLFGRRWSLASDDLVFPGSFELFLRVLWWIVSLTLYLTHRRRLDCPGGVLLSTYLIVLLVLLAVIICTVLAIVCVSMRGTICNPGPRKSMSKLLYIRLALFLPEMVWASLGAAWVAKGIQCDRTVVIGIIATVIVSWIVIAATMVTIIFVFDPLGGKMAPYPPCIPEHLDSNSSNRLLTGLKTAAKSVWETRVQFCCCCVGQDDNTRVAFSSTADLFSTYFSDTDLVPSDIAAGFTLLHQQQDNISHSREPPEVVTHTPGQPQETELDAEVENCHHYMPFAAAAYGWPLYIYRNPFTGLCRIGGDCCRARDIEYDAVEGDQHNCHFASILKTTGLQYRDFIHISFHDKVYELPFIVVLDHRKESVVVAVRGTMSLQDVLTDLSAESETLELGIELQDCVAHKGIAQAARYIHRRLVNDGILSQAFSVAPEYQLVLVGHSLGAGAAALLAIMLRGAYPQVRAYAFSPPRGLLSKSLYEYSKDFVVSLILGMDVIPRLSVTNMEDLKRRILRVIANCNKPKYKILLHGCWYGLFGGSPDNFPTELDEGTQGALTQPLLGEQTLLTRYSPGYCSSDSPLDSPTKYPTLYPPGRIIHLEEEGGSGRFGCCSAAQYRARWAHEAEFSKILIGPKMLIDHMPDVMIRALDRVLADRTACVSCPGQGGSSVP

IC50 [1] | IC50 [2] [µM] | SMILES
> 0.1 µM (inactive) | 0.0099 | O=C(N1CCCCC1c1ccccc1)n1cc(-c2ccc(-c3ccccc3)cc2)nn1 (stereo unspecified)
> 3.33 µM (inactive) | 0.038 | COc1ccc(-c2ccc(-c3cn(C(=O)N4CCCCC4c4ccccc4)nn3)cc2)cc1 (stereo unspecified)
> 0.1 µM (inactive) | – | O=C(N1CCCCC1c1ccccc1)n1cc(-c2ccc(-c3cccc(CO)c3)cc2)nn1 (stereo unspecified)
> 0.1 µM (inactive) | – | O=C(O)c1cccc(-c2ccc(-c3cn(C(=O)N4CCCCC4Cc4ccccc4)nn3)cc2)c1 (stereo unspecified)
